Measured values from patent publication US12109218B2, “Compositions of grapiprant and methods for using the same” (ARATANA THERAPEUTICS, INC., priority 2014, dated 2024).
Read-outs that look alike come from different tables or passages of the source.

Experiments:
[1] = Dose linearity and effect of feeding, PK in cats (Example 10); format: in vivo, cat; details: male, serum, po, cats, Male, mean; for Cmax: read-out: Cmax; for Tmax: read-out: Tmax; for half-life: read-out: t1/2 (converted); for AUC(0-inf): read-out: AUC0-∞
Method: Grapiprant was blended in a mixture of excipients as shown in Table 14 and administered orally by capsule to male and female cats.
The day of dosing was defined as Day 0. Following dosing, the animals were evaluated for clinical signs. Blood samples were collected prior to dosing and at 0.25, 0.5, 1, 2, 4, 8, 12, and 24-hours postdose. The blood samples were processed to serum and analyzed for grapiprant concentration. There were no test article-related clinical signs. The mean grapiprant pharmacokinetic results were as follow in Table 16.

Feline Onychectomy = assay: Feline onychectomy pain study FCL-12-002 (Example 9); format: in vivo, cat
Method: This controlled, non-GLP, laboratory study used three treatment groups: Group 1 was dosed with 20-mg grapiprant-containing Formulation […] tablets the night before (about 12 hours) and 30 minutes before surgery; Group 2 was the negative control dosed with empty gelatin capsules; and Group 3 was dosed with two 20-mg grapiprant-containing Formulation […] tablets given 30 minutes before surgery. Ten adult cats were in each group. The cats were acclimated for 7 days. Cats were divided into two sequences of 15 cats each to allow for surgeries over two days. The day of surgery was considered Day 0 for that sequence. One cat from each grapiprant-treated group was removed before surgical procedures were performed. On Day -1/0 for that sequence, all animals were administered with the appropriate test article before onychectomy. All animals received a dose of butorphanol before surgery. Following Day 2 procedures, all animals were transferred to an open feline colony. Study parameters of interest included statistical analysis of recovery, sedation, analgesia scores, and clinical pathology.

[2] = Crossover PK of tablet vs methylcellulose suspension in beagle dogs (Example 15); format: in vivo, beagle dog; details: for Cmax / AUC(0-t) / Tmax: both sexes, dog, serum, po; for Cmax / AUC(0-t): beagle, both sexes combined; for AUC(0-t): read-out: average AUClast
Method: The objective of this study was to determine and compare the pharmacokinetic parameters of grapiprant in beagle dogs after single oral administration of a flavored tablet formulation and a methylcellulose suspension formulation at nominal doses of 6 mg/kg and 50 mg/kg. For this study, sixteen beagle dogs, […], were divided into two groups based on the nominal doses of grapiprant, either 6 mg/kg in Groups 3AB or 50 mg/kg in Groups 4A/B. Each group was given the appropriate oral dose in a tablet or in a methylcellulose formulation, using the crossover design as shown below at Table 19, on study Days 0 and 15. Blood samples were collected and serum was prepared, frozen, and analyzed for concentration of grapiprant.
The vehicle was 0.5% methylcellulose (400 centipoise) in water. About half a volume of distilled water was heated to about 40-50° C. Methylcellulose was weighed to give a final concentration of 0.5% (w/v), and dissolved in the heated distilled water with stirring. The flask with the methylcellulose solution was cooled immediately. The remaining distilled water was added into the flask to adjust volume. The final solution was stirred for least 30 minutes.
To prepare 1.2-mg/mL and 10-mg/mL suspensions grapiprant in the vehicle, an appropriate amount of grapiprant was added to a calibrated beaker containing 0.5% aqueous methylcellulose, and mixed using a vortex. The suspension was homogenized using a Polytron™ mixer with attached antifoam bit. A stir bar was added to the beaker, and the suspension was stirred for about 5 minutes. The stir bar was removed temporarily to adjust the volume, and the suspension was stirred for another 5 minutes before it was transferred to a labeled amber dosing container or glass beaker wrapped with foil.
The dosing suspension was prepared fresh on each day of dosing. A vortex depth of between 75% and 100% of the depth of the container containing the 500-mg suspension was achieved on both dosing days. […] Dose formulation samples were transported to the animal room before collection and were collected (while the formulations were being stirred) just before dosing the first animal of each group, and just before dosing the last animal of each group. These steps guard against the 500-mg suspension settling during transport from the formulation laboratory to the animal room.

[3] = 2 mg/kg, Group 1, 2 mg/kg capsule, Fed
[4] = 2 mg/kg, Group 2, 2 mg/kg capsule, Fasted
[5] = 6 mg/kg, Group 3, 6 mg/kg capsule, Fasted
[6] = 10 mg/kg, Group 4, 10 mg/kg capsule, Fasted
[7] = cats, 20-mg Formulation A34 tablets before onychectomy, vs placebo control
[8] = 60 mg, beagle dogs, Day 0, 60-mg suspension
[9] = 60 mg, beagle dogs, Day 0, 60-mg tablet
[10] = 60 mg, beagle dogs, Day 15, 60-mg suspension
[11] = 60 mg, beagle dogs, Day 15, 60-mg tablet
[12] = 500 mg, beagle dogs, Day 0, 500-mg suspension
[13] = 500 mg, beagle dogs, Day 0, 500-mg tablet
[14] = 500 mg, beagle dogs, Day 15, 500-mg suspension
[15] = 500 mg, beagle dogs, Day 15, 500-mg tablet

CCc1nc2c(C)nc(C)cc2n1-c1ccc(CCNC(=O)NS(=O)(=O)c2ccc(C)cc2)cc1 [grapiprant, N-{2-[4-(2-ethyl-4,6-dimethyl-1H-imidazo[4,5-c]pyridin-1-yl)phenyl]ethyl}-N′-[(4-methylphenyl)sulfonyl]urea]
Cmax [1, 3]: 407 ng/mL | Tmax [1, 3]: 1.65 h | half-life [1, 3]: 3.12 h | AUC(0-t) [1, 4]: 2290 ng·h/mL | AUC(0-inf) [1, 4]: 1970 ng·h/mL | Cmax [1, 4]: 1100 ng/mL | Tmax [1, 4]: 1.01 h | half-life [1, 4]: 2.16 h | AUC(0-t) [1, 5]: 3650 ng·h/mL | AUC(0-inf) [1, 5]: 3750 ng·h/mL | Cmax [1, 5]: 2970 ng/mL | Tmax [1, 5]: 0.99 h | half-life [1, 5]: 2.79 h | AUC(0-t) [1, 6]: 7430 ng·h/mL | AUC(0-inf) [1, 6]: 7580 ng·h/mL | Cmax [1, 6]: 4280 ng/mL | Tmax [1, 6]: 1.33 h | half-life [1, 6]: 4.03 h | comparison of dosing regimens (Feline Onychectomy; Group 1 (about 12 hours and 30 minutes before surgery) vs Group 3 (two tablets 30 minutes before surgery)): dosing the cats with grapiprant the night before surgery was more effective | pain interventions (Feline Onychectomy; both groups of grapiprant treated animals): fewer pain interventions than placebo control | analgesia scores (Feline Onychectomy; [7]): decreased analgesia scores (reduced pain) | sedation scores (Feline Onychectomy; [7]): without an apparent effect on sedation scores | fecal abnormalities ([2]; beagle dogs, single oral 60 mg or 500 mg): Slight increases in the incidence of fecal abnormalities | relative bioavailability ratio (tablet/suspension) ([2]; both dose levels, both trials): greater than 100 | Cmax [2, 8]: 4050 ng/mL | AUC(0-t) [2, 8]: 14500 ng·h/mL | Cmax [2, 9]: 5330 ng/mL | AUC(0-t) [2, 9]: 19600 ng·h/mL | Cmax [2, 10]: 3810 ng/mL | AUC(0-t) [2, 10]: 12500 ng·h/mL | Cmax [2, 11]: 6110 ng/mL | AUC(0-t) [2, 11]: 17400 ng·h/mL | Cmax [2, 12]: 76800 ng/mL | AUC(0-t) [2, 12]: 293000 ng·h/mL | Cmax [2, 13]: 96100 ng/mL | AUC(0-t) [2, 13]: 455000 ng·h/mL | Cmax [2, 14]: 74200 ng/mL | AUC(0-t) [2, 14]: 209000 ng·h/mL | Cmax [2, 15]: 101000 ng/mL | AUC(0-t) [2, 15]: 430000 ng·h/mL | Tmax ([2]; beagle dogs, Day 0, 60-mg methylcellulose suspension): 1 h | Tmax ([2]; beagle dogs, Day 15, 500-mg suspension): 1 h
